From ChEMBL document CHEMBL4387766, “Synthesis and biological evaluation of PSMA-targeting paclitaxel conjugates” (Bioorg Med Chem Lett, 2019)

Experiments:
[1] = Cytotoxicity against human VA13 cells assessed as reduction in cell viability measured after 72 hrs by MTT assay; assay type: cell-based; settings: WI-38 VA13 cells
LNCaP = test: Cytotoxicity against PSMA-positive human LNCAP cells assessed as reduction in cell viability measured after 72 hrs by MTT assay; assay type: functional
CWR22R = test: Cytotoxicity against PSMA-positive human 22Rv1 cells assessed as reduction in cell viability measured after 72 hrs by MTT assay; assay type: functional; settings: 22Rv1, 72 h
PC-3 = test: Cytotoxicity against PSMA-deficient human PC3 cells assessed as reduction in cell viability measured after 72 hrs by MTT assay; assay type: functional; settings: PC-3, 72 h
[2] = Cytotoxicity against HEK293T cells assessed as reduction in cell viability measured after 72 hrs by MTT assay; assay type: cell-based, HEK-293T; settings: human
[3] = Cytotoxicity against human MCF7 cells assessed as reduction in cell viability measured after 72 hrs by MTT assay; assay type: cell-based
[4] = Cytotoxicity against human A549 cells assessed as reduction in cell viability measured after 72 hrs by MTT assay; assay type: cell-based
[5] = Selectivity ratio of CC50 for human PSMA-deficient PC3 cells to CC50 for PSMA-positive human LNCAP cells; assay type: functional
[6] = Selectivity ratio of CC50 for human VA13 cells to CC50 for PSMA-positive human LNCAP cells
[7] = Selectivity ratio of CC50 for human PSMA-deficient PC3 cells to CC50 for PSMA-positive human 22Rv1 cells; assay type: functional
[8] = Selectivity ratio of CC50 for human VA13 cells to CC50 for PSMA-positive human 22Rv1 cells

| SMILES | CC50 at 72 h [1] [nM] | CC50 (LNCaP) [nM] | CC50 (CWR22R) [nM] | CC50 (PC-3) [nM] | CC50 at 72 h [2] [nM] | CC50 at 72 h [3] [nM] | CC50 at 72 h [4] [nM] | Selectivity ratio [5] | Selectivity ratio [6] | Selectivity ratio [7] | Selectivity ratio [8] |
| --- | --- | --- | --- | --- | --- | --- | --- | --- | --- | --- | --- |
| CC(=O)O[C@H]1C(=O)[C@@]2(C)[C@H]([C@H](OC(=O)c3ccccc3)[C@]3(O)C[C@H](OC(=O)[C@H](OC(=O)CCCc4cn(CCCCCCCCCCC(=O)NCCCC[C@H](NC(=O)N[C@@H](CCC(=O)O)C(=O)O)C(=O)O)nn4)[C@@H](NC(=O)c4ccccc4)c4ccccc4)C(C)=C1C3(C)C)[C@]1(OC(C)=O)CO[C@@H]1C[C@@H]2O | 66 | 835 | 1000 | 1230 | 294 | 189 | 20 | 0.99 | 0.7 | 1.2 | 0.85 |
| CC(=O)O[C@H]1C(=O)[C@@]2(C)[C@H]([C@H](OC(=O)c3ccccc3)[C@]3(O)C[C@H](OC(=O)[C@H](OC(=O)CCCc4cn(CCCCCCCCCCNC(=O)NCCCC[C@H](NC(=O)N[C@@H](CCC(=O)O)C(=O)O)C(=O)O)nn4)[C@@H](NC(=O)c4ccccc4)c4ccccc4)C(C)=C1C3(C)C)[C@]1(OC(C)=O)CO[C@@H]1C[C@@H]2O | 101 | 60 | 132 | 75 | 42 | 162 | 5 | 0.63 | 0.71 | 0.83 | 0.93 |
| CC(=O)O[C@H]1C(=O)[C@@]2(C)[C@H]([C@H](OC(=O)c3ccccc3)[C@]3(O)C[C@H](OC(=O)[C@H](OC(=O)CCCc4cn(CCCCCC(=O)N(CCCC[C@H](NC(=O)N[C@@H](CCC(=O)O)C(=O)O)C(=O)O)Cc5ccc(Cl)cc5)nn4)[C@@H](NC(=O)c4ccccc4)c4ccccc4)C(C)=C1C3(C)C)[C@]1(OC(C)=O)CO[C@@H]1C[C@@H]2O | 48 | 1480 | 1670 | 1030 | 40 | 78 | < 30 | 0.34 | 0.26 | 0.91 | 0.7 |
| CC(=O)O[C@H]1C(=O)[C@@]2(C)[C@H]([C@H](OC(=O)c3ccccc3)[C@]3(O)C[C@H](OC(=O)[C@H](OC(=O)CCCc4cn(CCCCCCCCCCC(=O)N(CCCC[C@H](NC(=O)N[C@@H](CCC(=O)O)C(=O)O)C(=O)O)Cc5ccc(Br)cc5)nn4)[C@@H](NC(=O)c4ccccc4)c4ccccc4)C(C)=C1C3(C)C)[C@]1(OC(C)=O)CO[C@@H]1C[C@@H]2O | < 30 | 67 | 53 | 25 | < 30 | 34 | < 30 | 0.18 | 0.38 | 0.7 | 1.46 |
| CC(=O)O[C@H]1C(=O)[C@@]2(C)[C@H]([C@H](OC(=O)c3ccccc3)[C@]3(O)C[C@H](OC(=O)[C@H](OC(=O)CCCc4cn(CCCCCC(=O)N(CCCC[C@H](NC(=O)N[C@@H](CCC(=O)O)C(=O)O)C(=O)O)Cc5ccc(F)cc5)nn4)[C@@H](NC(=O)c4ccccc4)c4ccccc4)C(C)=C1C3(C)C)[C@]1(OC(C)=O)CO[C@@H]1C[C@@H]2O | < 30 | 365 | 1320 | 740 | < 30 | 49 | < 30 | 1.01 | 0.59 | 0.82 | 0.48 |
| CC(=O)O[C@H]1C(=O)[C@@]2(C)[C@H]([C@H](OC(=O)c3ccccc3)[C@]3(O)C[C@H](OC(=O)[C@H](OC(=O)CCCc4cn(CCCCCC(=O)N(CCCC[C@H](NC(=O)N[C@@H](CCC(=O)O)C(=O)O)C(=O)O)Cc5ccc(Br)cc5)nn4)[C@@H](NC(=O)c4ccccc4)c4ccccc4)C(C)=C1C3(C)C)[C@]1(OC(C)=O)CO[C@@H]1C[C@@H]2O | 45 | 510 | 1130 | 876 | 38 | 94 | < 30 | 0.85 | 0.33 | 1.15 | 0.45 |
| CC(=O)O[C@H]1C(=O)[C@@]2(C)[C@H]([C@H](OC(=O)c3ccccc3)[C@]3(O)C[C@H](OC(=O)[C@H](OC(=O)CCCc4cn(CCCCCCCCCCC(=O)N(CCCC[C@H](NC(=O)N[C@@H](CCC(=O)O)C(=O)O)C(=O)O)Cc5ccc(F)cc5)nn4)[C@@H](NC(=O)c4ccccc4)c4ccccc4)C(C)=C1C3(C)C)[C@]1(OC(C)=O)CO[C@@H]1C[C@@H]2O | 27 | 467 | 1140 | 479 | 41 | 66 | < 30 | 0.51 | 0.54 | 0.62 | 0.65 |
| CC(=O)O[C@H]1C(=O)[C@@]2(C)[C@H]([C@H](OC(=O)c3ccccc3)[C@]3(O)C[C@H](OC(=O)[C@H](OC(=O)CCCc4cn(CCCCCCCCCCC(=O)N(CCCC[C@H](NC(=O)N[C@@H](CCC(=O)O)C(=O)O)C(=O)O)Cc5ccc(Cl)cc5)nn4)[C@@H](NC(=O)c4ccccc4)c4ccccc4)C(C)=C1C3(C)C)[C@]1(OC(C)=O)CO[C@@H]1C[C@@H]2O | 24 | 44 | 120 | 20 | 23 | 56.5 | < 30 | 0.22 | 0.43 | 0.24 | 0.47 |
| CC(=O)O[C@H]1C(=O)[C@@]2(C)[C@H]([C@H](OC(=O)c3ccccc3)[C@]3(O)C[C@H](OC(=O)[C@H](OC(=O)CCCc4cn(CCCCCC(=O)N(CCCC[C@H](NC(=O)N[C@@H](CCC(=O)O)C(=O)O)C(=O)O)Cc5ccc(O)cc5)nn4)[C@@H](NC(=O)c4ccccc4)c4ccccc4)C(C)=C1C3(C)C)[C@]1(OC(C)=O)CO[C@@H]1C[C@@H]2O | 65 | 43 | 61 | 90 | 23 | 169 | 20 | 1.04 | 0.37 | 2.19 | 0.78 |
| CC(=O)O[C@H]1C(=O)[C@@]2(C)[C@H]([C@H](OC(=O)c3ccccc3)[C@]3(O)C[C@H](OC(=O)[C@H](OC(=O)CCCc4cn(CCCCCNC(=O)NCCCC[C@H](NC(=O)N[C@@H](CCC(=O)O)C(=O)O)C(=O)O)nn4)[C@@H](NC(=O)c4ccccc4)c4ccccc4)C(C)=C1C3(C)C)[C@]1(OC(C)=O)CO[C@@H]1C[C@@H]2O | 37 | 13 | 34 | 25 | 14 | 56 | – | 0.99 | 0.56 | 1.09 | 0.61 |
